Reference: patent US20250099356A1, “PERSONAL CARE COMPOSITION WITH N-CAPRYLOYL L-GLUTAMINE AND GLYCERYL MONOUNDECYLENATE AS PRESERVATIVE” (GALAXY SURFACTANTS LTD., priority 2024, published 2025)

Assays:
[1] = test system: Aspergillus niger ATCC 16404; assay: Minimum inhibitory concentration (PCPC protocol); format: cell-based; settings: Mold
Procedure: (§1) The MIC (minimum inhibitory concentrations) of N-capryloyl L-glutamine and glyceryl monoundecylenate and 1:1 mixture (by weight) of the two antimicrobials against various microbes are determined as per PCPC (Personal Care Product Council, Washington, USA) protocol.

[2] = test system: Burkholderia cepacia ATCC 25416; assay: Minimum inhibitory concentration (PCPC protocol); format: cell-based; settings: Gram negative
Procedure: as §1

[3] = test system: Candida albicans ATCC 10231; assay: Minimum inhibitory concentration (PCPC protocol); format: cell-based; settings: Yeast
Procedure: as §1

[4] = test system: Candida glabrata ATCC 66032; assay: Minimum inhibitory concentration (PCPC protocol); format: cell-based; settings: Yeast
Procedure: as §1

[5] = test system: Corynebacterium xerosis ATCC 373; assay: Minimum inhibitory concentration (PCPC protocol); format: cell-based; settings: Gram positive
Procedure: as §1

[6] = test system: Cutibacterium acnes ATCC 6919; assay: Minimum inhibitory concentration (PCPC protocol); format: cell-based; settings: Gram positive
Procedure: as §1

[7] = test system: Escherichia coli ATCC 8739; assay: Minimum inhibitory concentration (PCPC protocol); format: cell-based; settings: Gram negative
Procedure: as §1

[8] = test system: Gardnerella vaginalis ATCC 14018; assay: Minimum inhibitory concentration (PCPC protocol); format: cell-based; settings: Gram variable
Procedure: as §1

[9] = test system: Malassezia furfur ATCC 14521; assay: Minimum inhibitory concentration (PCPC protocol); format: cell-based; settings: Yeast
Procedure: as §1

[10] = test system: Malassezia restricta ATCC MYA 4611; assay: Minimum inhibitory concentration (PCPC protocol); format: cell-based; settings: Yeast
Procedure: as §1

[11] = test system: Micrococcus luteus NCIM 2103; assay: Minimum inhibitory concentration (PCPC protocol); format: cell-based; settings: Gram positive
Procedure: as §1

[12] = test system: Pseudomonas aeruginosa ATCC 15442; assay: Minimum inhibitory concentration (PCPC protocol); format: cell-based; settings: Gram negative
Procedure: as §1

[13] = test system: Staphylococcus aureus ATCC 6538; assay: Minimum inhibitory concentration (PCPC protocol); format: cell-based; settings: Gram positive; b76: at skin pH of 5.5
Procedure: as §1

[14] = test system: Staphylococcus epidermidis NCIM 2493; assay: Minimum inhibitory concentration (PCPC protocol); format: cell-based; settings: Gram positive, b76: at skin pH of 5.5
Procedure: as §1

[15] = test system: Staphylococcus hominis MTCC 8980; assay: Minimum inhibitory concentration (PCPC protocol); format: cell-based; settings: Gram positive
Procedure: as §1

Malassezia yeast = assay: Minimum inhibitory concentration, Malassezia yeast; format: cell-based; settings: species not given
Procedure: as §1

bacteria, yeast and mold = assay: Challenge test (preservation efficacy) in cleansing surfactant composition of Table 2a; format: cell-based; settings: for challenge test / preservation efficacy test: 1.5% level in the same formulation, pH 5.5 and 7.0
Description: In an embodiment several personal care compositions of various types have been tested for the preservation efficacy of the combination of N-capryloyl L-glutamine and glyceryl monoundecylenate using PCPC (Personal Care Products Council, Washington DC, formerly known as CTFA) protocol ('Evaluation of preservatives to protect cosmetics' by D. Orth in Cosmetics and Toiletries, March 91). […] Both ‘rinse-off’ and ‘leave-on’ formulations (Examples 5 to 10) passed the challenge tests. Using the typical surfactant composition two sets are prepared at different pHs, 5.5 and 7.0. Antimicrobials individually and in combination are tested for preservation efficacy. [table]

[16] = Biodegradability, OECD 301D-Closed Bottle Test
Description: N-capryloyl L-glutamine and glyceryl monoundecylenate, derived from renewable sources, are compatible with most used ingredients of the personal care compositions.

[17] = antimicrobial 1.5% in total in cleansing formulation of Table 2a, pH 5.5
[18] = antimicrobial 1.5% in total in cleansing formulation of Table 2a, pH 7.0
[19] = antimicrobial 2.0% in cleansing formulation of Table 2a, pH 5.5
[20] = antimicrobial 2.0% in total in cleansing formulation of Table 2a, pH 7.0
[21] = deployed alone at 2% in the surfactant composition, at both acidic and neutral pH (5.5 and 7.0)

Row | SMILES | MIC in % Aspergillus niger ATCC 16404 [1] [%] | MIC in % Burkholderia cepacia ATCC 25416 [2] [%] | MIC in % Candida albicans ATCC 10231 [3] [%] | MIC in % Candida glabrata ATCC 66032 [4] [%] | MIC in % Corynebacterium xerosis ATCC 373 [5] [%] | MIC in % Cutibacterium acnes ATCC 6919 [6] [%] | MIC in % Escherichia coli ATCC 8739 [7] [%] | MIC in % Gardnerella vaginalis ATCC 14018 [8] [%] | MIC in % Malassezia furfur ATCC 14521 [9] [%] | MIC in % Malassezia restricta ATCC MYA 4611 [10] [%] | MIC in % Micrococcus luteus NCIM 2103 [11] [%] | MIC in % Pseudomonas aeruginosa ATCC 15442 [12] [%] | MIC in % Staphylococcus aureus ATCC 6538 [13] [%] | MIC in % Staphylococcus epidermidis NCIM 2493 [14] [%] | MIC in % Staphylococcus hominis MTCC 8980 [15] [%] | MIC against Malassezia yeast (Malassezia yeast) [%] | challenge test / preservation efficacy test (bacteria, yeast and mold) | Challenge Test (bacteria, yeast and mold; [17]) | Challenge Test (bacteria, yeast and mold; [18]) | Challenge Test (bacteria, yeast and mold; [19]) | also measured
1 | CCCCCCCC(=O)N[C@@H](CCC(N)=O)C(=O)O [CG, N-capryloyl L-glutamine] | 1 | 1 | 0.6 | 0.6 | 0.5 | 0.2 | 0.7 | 0.6 | 0.3 | 0.4 | 0.5 | 0.7 | 0.3 | 0.9 | 0.6 | 0.2 | fail to pass the challenge test | Passes | Fails | Passes | MIC in % Staphylococcus epidermidis NCIM 2493 ([14]; listed as N-capryloyl L-glutamine): 1.0%; Challenge Test (bacteria, yeast and mold; [20]): Passes; Challenge Test (bacteria, yeast and mold; [21]): preserve the composition; biodegradability as per OECD 301D-Closed Bottle Test [16]: completely biodegradable
2 | C=CCCCCCCCCC(=O)OCC(O)CO (stereo not shown) [GMU, glyceryl monoundecylenate] | 0.8 | 1 | 1 | 0.4 | 0.5 | 0.9 | 1 | 0.3 | 0.2 | 0.2 | 0.5 | 1 | 0.1 | 1 | 0.7 | 0.2 | fail to pass the challenge test | Fails | Fails | Passes | MIC in % Staphylococcus epidermidis NCIM 2493 ([14]; listed as glyceryl mono undecylenate): 1.0%; MIC in % Staphylococcus epidermidis NCIM 2493 ([14]; listed as glyceryl monoundecylenate): 0.9%; Challenge Test (bacteria, yeast and mold; [20]): Passes; Challenge Test (bacteria, yeast and mold; [21]): preserve the composition; biodegradability as per OECD 301D-Closed Bottle Test [16]: completely biodegradable
